According to patent US11078515B2, “Methods for identifying targets for antimicrobial and antiproliferative compounds and compositions therefrom” (MIMETICS, LLC, priority 2015, dated 2021):
“Also recorded” adds a separate entry of the source.

How the values were obtained:
[1] = tested on: Cryptococcus neoformans; assay: Cell division / growth by cell counting in rich versus slow growth (PUD) medium; format: cell-based; conditions: 0, 50, 100 mM
Protocol: Left panel: C. neoformans cells were grown in rich medium (YEP+2% (w/v) Dextrose) with 0 mM (black), 50 mM (gray), and 100 mM (dotted) concentrations of Validamycin A. Cells were counted each hour for 6 hours and relative growth per mL was assessed. Right panel: C. neoformans cells were grown for 24 hours in PUD media and then dosed with Validamycin A. Cells were grown in slow growth medium (PUD) with 0 mM (black), 50 mM (gray), and 100 mM (dotted) concentrations of Validamycin A for 7 days and then counted at time intervals shown. Media was changed every 24 hours to fresh media containing the indicated concentration of drug.
(§1) Here, we determined whether a trehalose-mimetic compound (Validamycin A) produced by a Streptomyces bacterium, could target the trehalose pathway in S. cerevisiae and in C. neoformans, and inhibit their cell division in sub-optimal growth conditions.

[2] = tested on: Cryptococcus neoformans; assay: Plating assays (colony forming units) after exposure under slow growth conditions; format: cell-based
Source text: as §1

[3] = tested on: Candida albicans; conditions: rich medium; reference [14]; cited from earlier work

In the case of `OCC1=C[C@@H](N[C@H]2C[C@H](CO)[C@@H](O[C@H]3O[C@@H](CO)[C@H](O)[C@@H](O)[C@@H]3O)[C@H](O)[C@H]2O)[C@H](O)[C@@H](O)[C@@H]1O` [Validamycin A], the “effect on division rates / growth” value ([1]; optimal growth conditions, rich medium (YEPD+2% (w/v) Dextrose), counted each hour for 6 hours) is reported as “no effect; also recorded: not rich medium”, the “effect on division rates / growth” value ([1]; slow growth conditions, PUD medium (PBS, 5 g/L Urea, 0.1% (w/v) dextrose; mimics cerebral spinal fluid), 7 days) is reported as “severely inhibited; also recorded: inhibited in slow growth medium” and the colony forming units ([2]; cells exposed under slow growth conditions (PUD medium)) is reported as “substantially reduced”. The “fungicidal activity (plating assays)” value ([2]; slow growth conditions (PUD medium)) was “fungicidal” and the “efficacy as an antifungal agent against C. albicans” value [3] was “not effective”.
